Activity calls are given as the source filed them. The calls are words filed in the database; no cut-off is given here.
target: T1, P2Y purinoceptor 6 (Homo sapiens, UniProt Q15077); test: Agonist activity at human P2Y6 receptor expressed in human 1321N1 cells coexpressing phospholipase C-activating Gq protein assessed as [3H]inositol phosphate production; type: functional, cell-based; settings: 1321-n1
T1 sequence (Q15077 whole entry): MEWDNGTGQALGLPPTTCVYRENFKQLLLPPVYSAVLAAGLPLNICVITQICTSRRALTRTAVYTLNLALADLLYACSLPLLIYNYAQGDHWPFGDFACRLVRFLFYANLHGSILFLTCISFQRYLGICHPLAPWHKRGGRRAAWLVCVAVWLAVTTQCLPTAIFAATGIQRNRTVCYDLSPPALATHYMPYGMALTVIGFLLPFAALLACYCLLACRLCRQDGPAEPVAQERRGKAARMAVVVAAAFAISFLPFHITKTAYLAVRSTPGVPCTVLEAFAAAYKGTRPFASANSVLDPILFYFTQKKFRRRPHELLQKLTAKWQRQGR

With `O=c1ccn([C@@H]2O[C@H](COP(=O)(O)C(F)(F)P(=O)(O)O)[C@@H](O)[C@H]2O)c(=O)[nH]1` the EC50 was “Not Active”.

same assay, conditions: read-out: EC50

`O=c1ccn([C@@H]2O[C@H](COP(=O)(O)OP(=O)(O)O)[C@@H](O)[C@H]2O)c(=S)[nH]1` and `O=c1ccn([C@@H]2O[C@H](COP(=O)(O)OP(=O)(O)O)[C@@H](O)[C@H]2O)c(=O)[nH]1` [URIDINE_DIPHOSPHATE] are within 1.5-fold of each other in EC50: 0.447 µM for the first, 0.53 µM for the second.

Going from `O=c1ccn([C@@H]2O[C@H](COP(=O)(O)OP(=O)(O)Oc3ccc([N+](=O)[O-])cc3)[C@@H](O)[C@H]2O)c(=O)[nH]1` to `O=c1ccn([C@@H]2O[C@H](COP(=O)(O)OP(=O)(O)Oc3ccccc3)[C@@H](O)[C@H]2O)c(=O)[nH]1`, the EC50 rises from 2.76 µM to 7.4 µM (2.7-fold).

Compared with `O=c1ccn([C@@]23C[C@H]2[C@H](COP(=O)(O)OP(=O)(O)O)[C@@H](O)[C@H]3O)c(=O)[nH]1`, `O=c1[nH]c(=S)ccn1[C@@H]1O[C@H](COP(=O)(O)OP(=O)(O)O)[C@@H](O)[C@H]1O` is 56-fold higher in EC50: 0.042 µM for the first, 2.36 µM for the second. The first is the more potent here.

`CCN(CC)CC.COP(=O)(O)OP(=O)(O)OC[C@H]1O[C@@H](n2ccc(=S)[nH]c2=O)[C@H](O)[C@@H]1O` and `CCCOP(=O)(O)OP(=O)(O)OC[C@H]1O[C@@H](n2ccc(=O)[nH]c2=S)[C@H](O)[C@@H]1O` are within 1.5-fold of each other in EC50: 10.4 µM for the first, 9.1 µM for the second.

Going from `O=c1ccn([C@@H]2O[C@H](COP(=O)(O)CP(=O)(O)O)[C@@H](O)[C@H]2O)c(=S)[nH]1` to `O=c1ccn([C@@H]2O[C@H](COP(=O)(O)CP(=O)(O)O)[C@@H](O)[C@H]2O)c(=O)[nH]1`, the EC50 falls from 1.99 µM to 0.339 µM (5.9-fold). The second is the more potent here.

Compared with `C#CCCOP(=O)(O)OP(=O)(O)OC[C@H]1O[C@@H](n2ccc(=O)[nH]c2=O)[C@H](O)[C@@H]1O`, `O=c1ccn([C@@H]2O[C@H](COP(=O)(O)OP(=O)(O)Oc3cccc(Cl)c3)[C@@H](O)[C@H]2O)c(=O)[nH]1` is 4.8-fold higher in EC50: 1.52 µM for the first, 7.37 µM for the second.

Going from `CC(C)(C)OP(=O)(O)OP(=O)(O)OC[C@H]1O[C@@H](n2ccc(=O)[nH]c2=S)[C@H](O)[C@@H]1O` to `CO/N=c1/ccn([C@@H]2O[C@H](COP(=O)(O)OP(=O)(O)O)[C@@H](O)[C@H]2O)c(=O)[nH]1`, the EC50 falls from 2.04 µM to 0.07 µM (29-fold).

For `O=c1[nH]c(=O)n([C@@H]2O[C@H](COP(=O)(O)C(F)(F)P(=O)(O)O)[C@@H](O)[C@H]2O)cc1I`, the EC50 was 0.127 µM.

species: Homo sapiens; test: Selectivity, ratio of EC50 for human P2Y6 receptor to EC50 for human P2Y14 receptor; settings: not given

First: O=c1ccn([C@@H]2O[C@H](COP(=O)(O)OP(=O)(O)O)[C@@H](O)[C@H]2O)c(=S)[nH]1
Second: CCOP(=O)(O)OP(=O)(O)OC[C@H]1O[C@@H](n2ccc(=O)[nH]c2=S)[C@H](O)[C@@H]1O
The Ratio EC50 of the first is lower: 230 for the first, greater than 250 for the second.

First: O=c1ccn([C@@H]2O[C@H](COP(=O)(O)CP(=O)(O)O)[C@@H](O)[C@H]2O)c(=S)[nH]1
Second: O=c1ccn([C@@H]2O[C@H](COP(=O)(O)CP(=O)(O)O)[C@@H](O)[C@H]2O)c(=O)[nH]1
The Ratio EC50 of the first is higher: 2160 for the first, 31 for the second.

Going from `O=c1ccn([C@@H]2O[C@H](COP(=O)(O)OP(=O)(O)OC(CO)CO)[C@@H](O)[C@H]2O)c(=O)[nH]1` to `CC(C)(C)OP(=O)(O)OP(=O)(O)OC[C@H]1O[C@@H](n2ccc(=O)[nH]c2=O)[C@H](O)[C@@H]1O`, the Ratio EC50 falls from 59 to 43.

Going from `CC(C)(C)OP(=O)(O)OP(=O)(O)OC[C@H]1O[C@@H](n2ccc(=O)[nH]c2=S)[C@H](O)[C@@H]1O` to `CCCOP(=O)(O)OP(=O)(O)OC[C@H]1O[C@@H](n2ccc(=O)[nH]c2=S)[C@H](O)[C@@H]1O`, the Ratio EC50 rises from 64 to 230.

target: T1, P2Y purinoceptor 6; test: Agonist activity at human P2Y6 receptor expressed in human 1321N1 cells coexpressing phospholipase C-activating Gq protein assessed as [3H]inositol phosphate production at 10 uM; type: functional, cell-based; settings: not given

`O=c1ccn([C@@H]2O[C@H](COP(=O)(O)OP(=O)(O)OCC(O)CO)[C@@H](O)[C@H]2O)c(=O)[nH]1` (some centres not stated) and `O=c1ccn([C@@H]2O[C@H](COP(=O)(O)OP(=O)(O)OC(CO)CO)[C@@H](O)[C@H]2O)c(=O)[nH]1` cannot be ordered by EC50: greater than 10 µM for the first, greater than 10 µM for the second.

`COP(=O)(O)OP(=O)(O)OC[C@H]1O[C@@H](n2ccc(=O)[nH]c2=S)[C@H](O)[C@@H]1O` and `CCOP(=O)(O)OP(=O)(O)OC[C@H]1O[C@@H](n2ccc(=O)[nH]c2=S)[C@H](O)[C@@H]1O` cannot be ordered by EC50: greater than 10 µM for the first, greater than 10 µM for the second.

`COP(=O)(O)OP(=O)(O)OC[C@H]1O[C@@H](n2ccc(=O)[nH]c2=O)[C@H](O)[C@@H]1O` and `N#CCCOP(=O)(O)OP(=O)(O)OC[C@H]1O[C@@H](n2ccc(=O)[nH]c2=O)[C@H](O)[C@@H]1O` cannot be ordered by EC50: greater than 10 µM for the first, greater than 10 µM for the second.

`O=c1[nH]c(=S)ccn1[C@@H]1O[C@H](COP(=O)(O)OP(=O)(O)O[C@H]2O[C@H](CO)[C@@H](O)[C@H](O)[C@H]2O)[C@@H](O)[C@H]1O` and `C#CCCOP(=O)(O)OP(=O)(O)OC[C@H]1O[C@@H](n2ccc(=O)[nH]c2=S)[C@H](O)[C@@H]1O` cannot be ordered by EC50: greater than 10 µM for the first, greater than 10 µM for the second.

`COc1ccc(OP(=O)(O)OP(=O)(O)OC[C@H]2O[C@@H](n3ccc(=O)[nH]c3=O)[C@H](O)[C@@H]2O)cc1` and `O=c1ccn([C@@H]2O[C@H](COP(=O)(O)OP(=O)(O)OC3CCCCC3)[C@@H](O)[C@H]2O)c(=O)[nH]1` cannot be ordered by EC50: greater than 10 µM for the first, greater than 10 µM for the second.

For `O=c1ccn([C@H]2[C@H](O)[C@H](O)[C@@]3(COP(=O)(O)OP(=O)(O)O)C[C@H]23)c(=O)[nH]1`, the Activity was “inactive”.

target: T2, P2Y purinoceptor 14 (Homo sapiens, UniProt Q15391); test: Agonist activity at human P2Y14 receptor expressed in HEK293 cells coexpressing phospholipase C-activating Gi protein cells assessed as inhibition of forskolin induced [3H]cAMP production; type: functional, cell-based; settings: hek293
T2 sequence (Q15391 whole entry): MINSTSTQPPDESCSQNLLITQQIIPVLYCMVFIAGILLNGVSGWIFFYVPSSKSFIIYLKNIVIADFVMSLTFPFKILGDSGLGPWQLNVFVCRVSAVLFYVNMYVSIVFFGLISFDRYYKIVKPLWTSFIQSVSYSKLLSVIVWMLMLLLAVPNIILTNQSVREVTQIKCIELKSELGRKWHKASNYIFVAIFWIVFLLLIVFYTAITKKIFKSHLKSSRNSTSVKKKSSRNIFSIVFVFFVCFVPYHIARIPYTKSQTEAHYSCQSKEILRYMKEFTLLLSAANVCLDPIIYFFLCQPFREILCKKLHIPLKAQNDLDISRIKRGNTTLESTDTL

With `CCN(CC)CC.COP(=O)(O)OP(=O)(O)OC[C@H]1O[C@@H](n2ccc(=S)[nH]c2=O)[C@H](O)[C@@H]1O` the EC50 was “Not Active”.

same assay, conditions: read-out: EC50

Going from `O=c1ccn([C@@H]2O[C@H](COP(=O)(O)OP(=O)(O)O)[C@@H](O)[C@H]2O)c(=S)[nH]1` to `COP(=O)(O)OP(=O)(O)OC[C@H]1O[C@@H](n2ccc(=O)[nH]c2=S)[C@H](O)[C@@H]1O`, the EC50 rises from 0.00192 µM to 0.056 µM (29-fold). The first is the more potent here.

`O=c1ccn([C@@H]2O[C@H](COP(=O)(O)OP(=O)(O)Oc3ccc([N+](=O)[O-])cc3)[C@@H](O)[C@H]2O)c(=O)[nH]1` and `COc1ccc(OP(=O)(O)OP(=O)(O)OC[C@H]2O[C@@H](n3ccc(=O)[nH]c3=O)[C@H](O)[C@@H]2O)cc1` are within 1.5-fold of each other in EC50: 1.49 µM for the first, 1.9 µM for the second.

Compared with `O=c1ccn([C@@H]2O[C@H](COP(=O)(O)OP(=O)(O)OCC(O)CO)[C@@H](O)[C@H]2O)c(=O)[nH]1` (some centres not stated), `O=c1ccn([C@@H]2O[C@H](COP(=O)(O)OP(=O)(O)OC(CO)CO)[C@@H](O)[C@H]2O)c(=O)[nH]1` is 9.6-fold lower in EC50: 1.6 µM for the first, 0.167 µM for the second. The second is the more potent here.

Compared with `O=c1ccn([C@@H]2O[C@H](COP(=O)(O)CP(=O)(O)O)[C@@H](O)[C@H]2O)c(=S)[nH]1`, `O=c1ccn([C@@H]2O[C@H](COP(=O)(O)CP(=O)(O)O)[C@@H](O)[C@H]2O)c(=O)[nH]1` is 12-fold higher in EC50: 0.00092 µM for the first, 0.011 µM for the second. The first is the more potent here.

Going from `C#CCCOP(=O)(O)OP(=O)(O)OC[C@H]1O[C@@H](n2ccc(=O)[nH]c2=O)[C@H](O)[C@@H]1O` to `N#CCCOP(=O)(O)OP(=O)(O)OC[C@H]1O[C@@H](n2ccc(=O)[nH]c2=O)[C@H](O)[C@@H]1O`, the EC50 rises from 0.48 µM to 7.46 µM (16-fold). The first is the more potent here.

First: CC(C)(C)OP(=O)(O)OP(=O)(O)OC[C@H]1O[C@@H](n2ccc(=O)[nH]c2=S)[C@H](O)[C@@H]1O
Second: CC(C)(C)OP(=O)(O)OP(=O)(O)OC[C@H]1O[C@@H](n2ccc(=O)[nH]c2=O)[C@H](O)[C@@H]1O
The EC50 of the first is 7.9-fold lower: 0.032 µM for the first, 0.252 µM for the second. The first is the more potent here.

First: COP(=O)(O)OP(=O)(O)OC[C@H]1O[C@@H](n2ccc(=O)[nH]c2=O)[C@H](O)[C@@H]1O
Second: CCOP(=O)(O)OP(=O)(O)OC[C@H]1O[C@@H](n2ccc(=O)[nH]c2=S)[C@H](O)[C@@H]1O
The EC50 of the first is 70-fold higher: 2.73 µM for the first, 0.039 µM for the second.

Compared with `O=c1ccn([C@@H]2O[C@H](COP(=O)(O)C(F)(F)P(=O)(O)O)[C@@H](O)[C@H]2O)c(=O)[nH]1`, `O=c1[nH]c(=O)n([C@@H]2O[C@H](COP(=O)(O)C(F)(F)P(=O)(O)O)[C@@H](O)[C@H]2O)cc1I` is 2.3-fold higher in EC50: 0.063 µM for the first, 0.142 µM for the second. The first is the more potent here.

Going from `O=c1ccn([C@@H]2O[C@H](COP(=O)(O)OP(=O)(O)Oc3ccccc3)[C@@H](O)[C@H]2O)c(=O)[nH]1` to `O=c1ccn([C@@H]2O[C@H](COP(=O)(O)OP(=O)(O)Oc3cccc(Cl)c3)[C@@H](O)[C@H]2O)c(=O)[nH]1`, the EC50 rises from 0.768 µM to 1.8 µM (2.3-fold).

First: O=c1[nH]c(=S)ccn1[C@@H]1O[C@H](COP(=O)(O)OP(=O)(O)O)[C@@H](O)[C@H]1O
Second: CO/N=c1/ccn([C@@H]2O[C@H](COP(=O)(O)OP(=O)(O)O)[C@@H](O)[C@H]2O)c(=O)[nH]1
The EC50 of the first is 10-fold lower: 0.32 µM for the first, 3.32 µM for the second.

Compared with `O=c1[nH]c(=S)ccn1[C@@H]1O[C@H](COP(=O)(O)OP(=O)(O)O[C@H]2O[C@H](CO)[C@@H](O)[C@H](O)[C@H]2O)[C@@H](O)[C@H]1O`, `CCCOP(=O)(O)OP(=O)(O)OC[C@H]1O[C@@H](n2ccc(=O)[nH]c2=S)[C@H](O)[C@@H]1O` is 3.6-fold higher in EC50: 0.011 µM for the first, 0.04 µM for the second.

First: C#CCCOP(=O)(O)OP(=O)(O)OC[C@H]1O[C@@H](n2ccc(=O)[nH]c2=S)[C@H](O)[C@@H]1O
Second: O=c1ccn([C@@H]2O[C@H](COP(=O)(O)OP(=O)(O)OC3CCCCC3)[C@@H](O)[C@H]2O)c(=O)[nH]1
The EC50 of the first is 470-fold lower: 0.011 µM for the first, 5.16 µM for the second. The first is the more potent here.

target: T3, P2Y purinoceptor 14 (Homo sapiens) (UniProt Q15391); test: Agonist activity at human P2Y14 receptor expressed in HEK293 cells coexpressing phospholipase C-activating Gi protein cells assessed as inhibition of forskolin induced [3H]cAMP production at 10 uM; type: functional, cell-based; settings: not given
T3 sequence (whole entry): T2 sequence (Q15391 whole entry)

For `O=c1ccn([C@@]23C[C@H]2[C@H](COP(=O)(O)OP(=O)(O)O)[C@@H](O)[C@H]3O)c(=O)[nH]1`, the Activity was “inactive”.
For `O=c1ccn([C@H]2[C@H](O)[C@H](O)[C@@]3(COP(=O)(O)OP(=O)(O)O)C[C@H]23)c(=O)[nH]1`, the Activity was “inactive”.
